# According to patent publication US20140079836A1, “METHODS AND COMPOSITIONS FOR ALTERING HEALTH, WELLBEING, AND LIFESPAN” (LifeSpan Extension, LLC, priority 2008, published 2014):
# Tested on: Drosophila Melanogaster
# Assay: Drosophila survival/longevity after antioxidant media
# Type: in vivo
# Procedure: Drosophila cultures: A wingless variant of Drosophila Melanogaster was purchased from Carolina Biological Supply. These flies were fed nutrient media (Formula 4-24) and experimental flies were collected within 18 hours after hatching to ensure the females were virgin. Culture media: Flies were given a combination of the following: 1) Formula 4-24 without blue coloring for breeding and post exposure to antioxidants. […] 4) 20% sucrose solution on filter paper following AOX incubation to serve as a low nutrient media and known lifespan shortening agent. […] The flies remain in the antioxidant media for 12 days. […] All the flies are examined daily and media changed as required until all the flies have died. The date (post 12 day antioxidant incubation) is recorded. Lifespan results: The cumulative average lifespan of all flies for each group are then computed and compared against the cumulative average of the control (untreated) flies to determine if the Antioxidants increase lifespan. The average lifespan increase is separated by sex as well as combined for both sexes. This lifespan extension is expressed as a percent increase or decrease over control values. Culture media: […] Experimental phase: […] Lifespan results: The cumulative average lifespan of all flies for each group are then computed and compared against the cumulative average of the control (untreated) flies to determine if the antioxidants increase lifespan. The average lifespan increase is separated by sex as well as combined for both sexes.
# [1] = 0.01% antioxidant in media from hatching, antioxidant alone
# [2] = 0.1% antioxidant in media from hatching, antioxidant alone
# [3] = 1% antioxidant in media from hatching, antioxidant alone
# [4] = 1% antioxidant media 12 days, then 20% Sucrose
# [5] = 1% antioxidant media 12 days, then 20% Sucrose, vs 20% Sucrose
# [6] = 1% antioxidant media 12 days, then H2O2 media
# [7] = 1% antioxidant media 12 days, then H2O2 media, vs H2O2
structure (smiles),measurement,setting,value
"COC1=C(OC)C(=O)C(CCCCCCCCCCO)=C(C)C1=O [Idebenone, 6-(10-hydroxydecyl)-2,3-dimethoxy-5-methyl-1,4-benzoquin-one]","average lifespan, Average of Both",[1],23.4 days
same,"average lifespan, FEMALE",[1],23.4 days
same,"average lifespan, Average of Both",[2],10.2 days
same,"average lifespan, FEMALE",[2],10.2 days
same,"average lifespan, Average of Both",[3],10 days
same,"average lifespan, FEMALE",[3],12.4 days
same,"average lifespan, MALE",[3],8.1 days
same,"average lifespan, Average of Both",[4],11.89 days
same,"average lifespan, FEMALE",[4],11.7 days
same,"average lifespan, MALE",[4],12.11 days
same,"% Change of lifespan over control, Average of Both",[5],+5%
same,"% Change of lifespan over control, FEMALE",[5],−4%
same,"% Change of lifespan over control, MALE",[5],+24%
same,"average lifespan, Average of Both",[6],5.75 days
same,"average lifespan, FEMALE",[6],5.50 days
same,"average lifespan, MALE",[6],5.32 days
same,"% Change of lifespan over control, Average of Both",[7],+8%
same,"% Change of lifespan over control, FEMALE",[7],−7%
same,"% Change of lifespan over control, MALE",[7],+8%
